Measured values reported in US10814019B2, “MRI signal suppression agents, compositions, and methods” (University of Washington, priority 2014, dated 2020).

Columns and labels:
[1] = mDixon signal intensity of whole venous blood samples containing Ablavar; format: physicochemical
Procedure: Six in vitro whole venous blood samples each contained a different concentration (0, 2, 4, 6, 8, and 12 mM) of gadofosveset trisodium (Ablavar). For long echo time pairs (e.g., 11.5 ms/12.7 ms), the signal intensity decreased rapidly with Ablavar concentration greater than about 4 mM.

[2] = in vivo; cited from earlier work

- signal intensity relative to pure blood ([1]; 12 mM Ablavar, echo times as short as 6.9 ms/8.1 ms): below that of pure blood
- Ablavar concentration above which signal intensity decreased rapidly ([1]; long echo time pairs (e.g., 11.5 ms/12.7 ms)): greater than 4 mM
Structure (SMILES): O=C([O-])CN(CCN(CC(=O)[O-])CC(COP(=O)([O-])OC1CCC(c2ccccc2)(c2ccccc2)CC1)N(CC(=O)[O-])CC(=O)[O-])CC(=O)[O-].[Gd+3].[Na+].[Na+].[Na+] (stereo not drawn) [Ablavar, gadofosveset trisodium]
- half-life [2]: about 30 minutes
